Drawing on BindingDB's records for doi:10.1074/jbc.M109.067967 (University of Michigan, 2010), this text covers IC50 for twelve compounds.

The IC50 is the concentration that inhibits the measured activity by half. The low end stands for greater potency, the high end for weaker potency.

The target of assay [1] is T1, Plasminogen activator inhibitor 1 (Homo sapiens, UniProt P05121). The experiment in a line: Enzymatic Assay. The following applies: pH 7.8; 23 °C.
Assay [2] addresses Plasminogen activator inhibitor 1 (Mus musculus, UniProt P22777). As to the kind of experiment: Enzymatic Assay. Conditions: pH 7.8; 23 °C.
Assay [3] addresses T1, Plasminogen activator inhibitor 1. The experiment in a line: Enzyme activity assay using human and murine PAI-1. Conditions: pH 7.8.

In turn, `O=C(O[C@@H]1Cc2c(O)cc(O)cc2O[C@@H]1c1cc(O)c(O)c(O)c1)c1cc(O)c(O)c(O)c1` [(-)-Epigallocatechin-3-o-gallate] returned an IC50 in assay [1] of 91 nM. On to `O=C(OCCOC(=O)c1cc(O)c(O)c(O)c1)c1cc(O)c(O)c(O)c1` [CDE-008], for which the IC50 amounted to 162 nM in assay [2] and 44 nM in assay [3].

In the case of `O=C(O[C@H]1CCCC[C@H]1OC(=O)c1cc(O)c(O)c(O)c1)c1cc(O)c(O)c(O)c1` [CDE-031], the IC50 in assay [2] turned out to be 132 nM; in assay [3], 20 nM. In the same order, the values of `O=C(O[C@@H]1CCCC[C@H]1OC(=O)c1cc(O)c(O)c(O)c1)c1cc(O)c(O)c(O)c1` [CDE-034] are 644 nM and 116 nM. In the same order, the values of `O=C(Oc1ccccc1OC(=O)c1cc(O)c(O)c(O)c1)c1cc(O)c(O)c(O)c1` [CDE-056] are 758 nM and 74 nM. In the same order, the values of `O=C(OCC(COC(=O)c1cc(O)c(O)c(O)c1)OC(=O)c1cc(O)c(O)c(O)c1)c1cc(O)c(O)c(O)c1` [CDE-082] are 79 nM and 14 nM.

Compound `O=C(Oc1cc(O)cc2c1C[C@@H](OC(=O)c1cc(O)c(O)c(O)c1)[C@@H](c1cc(O)c(O)c(O)c1)O2)c1cc(O)c(O)c(O)c1` [Epigallocatechin-3,5-Digallate, C] returned an IC50 in assay [1] of 330 nM.

Consider `O=C(O)c1cc(O)c(O)c(O)c1` [Gallic Acid, F], for which the IC50 in assay [1] was determined as 6600 nM.

The compound `O=C1c2ccc(O)c(O)c2C(=O)c2c(O)ccc(O)c21` [Quinalizarin, E] registered an IC50 in assay [1] of 4400 nM.

Compound `Oc1c(Cl)cc(Cl)c(Cl)c1Cc1c(O)c(Cl)cc(Cl)c1Cl` [SMR000058356] registered a concentration for half-maximal inhibition (IC50) in assay [1] of 3800 nM. The IC50 values of the last two compounds are within 1.5-fold of each other.

In turn, `O=C(O)c1cc(O)c2c(c1)[C@H]([C@H]1c3cc(C(=O)O)cc(O)c3C(=O)c3c(O[C@@H]4O[C@H](CO)[C@@H](O)[C@H](O)[C@H]4O)cccc31)c1cccc(O[C@@H]3O[C@H](CO)[C@@H](O)[C@H](O)[C@H]3O)c1C2=O` [Sennoside A, G] displayed an IC50 in assay [1] of 51000 nM. `O=C(OCC1OC(OC(=O)c2cc(O)c(O)c(OC(=O)c3cc(O)c(O)c(O)c3)c2)C(OC(=O)c2cc(O)c(O)c(OC(=O)c3cc(O)c(O)c(O)c3)c2)C(OC(=O)c2cc(O)c(O)c(OC(=O)c3cc(O)c(O)c(O)c3)c2)C1OC(=O)c1cc(O)c(O)c(OC(=O)c2cc(O)c(O)c(O)c2)c1)c1cc(O)c(O)c(OC(=O)c2cc(O)c(O)c(O)c2)c1` (centres undefined) [Tannic Acid, A]: the IC50 in assay [1] is 7 nM; in assay [2], 4.1 nM; in assay [3], 6.6 nM.
